Reference: US20150352134A1, “COMPOSITION FOR TOPICAL SKIN APPLICATION CONTAINING GINSENOSIDE F2 DERIVED FROM HYDROPONIC GINSENG” (AMOREPACIFIC CORPORATION, priority 2012, published 2015)

Columns and labels:
[1] = system: B16/F10 melanoma cells; test: Melanogenesis inhibition in B16/F10 melanoma cells; assay type: cell-based; details: sample containing 0.001 wt. % of test substance; 3-day cultivation
Procedure: As a test substance, a sample containing 0.001 wt. % of ginsenoside F2 or kojic acid is added to a culture medium of B16/F10 melanoma cells (available from Korean Cell Line Bank) at a predetermined concentration. The culture medium is eliminated after 3-day cultivation. The cells are washed with PBS and dissolved in 1N NaOH. Then, the absorbance at 405 nm is measured. The control is the cells not treated with any test substance. In comparison with the melanin content in the control group, the inhibitory ability of each test substance against melanogenesis is measured. […] [formula]

[2] = system: DP6 (rat immortalized dermal papilla cell) line; test: Proliferation of hair follicle dermal papilla cells (WST-1); assay type: cell-based; details: 24 hours, not treated control = 100
Excerpt: The keratin protein constituting hair is produced by the keratinocytes in the hair roots, and the keratinocytes are differentiated from the hair papilla cells. To evaluate the composition of the present invention in regards to the effect to enhance the activity of hair papilla cells, the present invention uses DP6 (rat immortalized dermal papilla cell) line (Wendy Filsell, Journal of Cell Science 107, 1761-1772 (1994)). The hair papilla cells used in the present invention are a cell line isolated from the hair roots of male PVG rats by the microdissection method and cultured with DMEM (Dulbecco's modified eagle's medium, Gibco BRL, Gaithersburg, Md., U.S.A.) containing 10% FBS (Fetal Bovine Serum) in an incubator under the conditions of 5% CO2 and 37° C. for 24 hours. DP6 is put in the 96-well plate, cultured in an incubator at 37° C. for 24 hours and treated with the ginsenoside F2 of the present invention independently at a concentration of 5 ppm, 10 ppm, or 20 ppm. 24 hours after the treatment, the cell proliferation ability is measured using a WST-1 kit (Roche).

[3] = system: MITF; test: MITF expression in melanocytes (Western Blot); assay type: cell-based; details: 501me1 cell line, IBMX 100 μM, ginsenoside 10 ppm
Procedure: 501me1 cell line is injected in each well of a 6-well microtiter plate at a rate of 500,000 cells/well. The cell line in each well is treated with 0.1% of DMSO as the negative control group, 100 μM of IBMX as the positive control group, or ginsenoside 10 ppm of F2 as the test group, and cultured at 37° C. for 24 hours, 48 hours, or 72 hours, to obtain proteins. The proteins thus obtained are subjected to Western Blot using MITF and tyrosinase antibodies. Protein extraction and Western Blot are performed using the standard methods known in the art.

[4] = system: potassium ion channels (KATP channels); test: KATP channel opener test: recovery of NIH3T3 proliferation blocked by tolbutamide (WST-1); assay type: cell-based, mouse; details: 48 hours
Excerpt: Minoxidil, a treatment for hair loss, is known as a potassium ion channel opener (KATP channel opener) potentially acting on mitochondria and a representative drug used for treatment of androgenic alopecia (hair loss). A testing method used to evaluate the action of minoxidil includes treating with tolbutamide (SIGMA-ALDRICH, T0891) blocking the potassium ion channels (KATP channels) in fibroblasts constituting the corium of scalp to inhibit cell proliferation and then opening the potassium ion channels (KATP channels) to resume the cell proliferation. In order to evaluate the function of the composition of the present invention as a KATP channel opener, the present invention uses a mouse embryonic fibroblast cell line, NIH3T3, as fibroblasts. The cell line is obtained by naturally immortalizing a fibroblast cell line isolated from an NIH Swiss mouse embryo with 3T3 protocol. The cell line is cultured with DMEM (Dulbecco's modified eagle's medium, Gibco BRL, Gaithersburg, Md., U.S.A.) containing 10% FBS (Fetal Bovine Serum) in an incubator under the conditions of 5% CO2 and 37° C. for 24 hours.

[5] = system: procollagen type (I) in fibroblasts; test: Collagen biosynthesis in fibroblasts (procollagen type (I) ELISA); assay type: cell-based; details: 10 ng/ml, 24 hours; non-treated group = 100%
Procedure: The ginsenoside F2 of the present invention is compared with TGF-β in regards to the effect of promoting biosynthesis of collagen. Firstly, fibroblasts are seeded in 24 wells at a rate of 10^5 per well and cultured until the growth reaches 90%. The fibroblasts are cultured in a non-serum culture medium for 24 hours, treated with each 10 ng/ml of ginsenoside F2 or TGF-β dissolved in the non-serum culture medium, and then cultured in a CO2 incubator for 24 hours. The supernatant liquid is collected to determine an increase or decrease of procollagen using a procollagen type (I) ELISA kit. The collagen synthesis ability is denoted with respect to 100% for the non-treated group.

[6] = system: Human keratinocytes; test: Promotion of keratinocyte differentiation (cornified envelope, absorbance 340 nm); assay type: cell-based; details: ginsenoside 5 ppm, 5 days; low calcium negative control = 100
Procedure: The quantity of CE (Cornified Envelop) generated during differentiation of keratinocytes is measured in terms of absorbance in order to evaluate the ginsenoside F2 in regards to the effect of promoting differentiation of keratinocytes.
Human keratinocytes isolated from the epidermis of a newborn baby and subjected to a primary cultivation are immobilized in the bottom of a cultivation flask, treated with ginsenoside F2 applied to the culture medium to a concentration of 5 ppm, and cultured for 5 days until the keratinocytes grow to take up about 70 to 80% of the bottom area. In this regard, the negative control is the group treated with low calcium (0.03 mM), while the positive control is the group treated with high calcium (1.2 mM). Then, the cultured keratinocytes are harvested, washed with phosphate-buffered saline (PBS), treated with a 10 mM tris-HCl buffer solution (pH 7.4) containing 2% sodium dodecyl sulfate (SDS) and 20 mM dithiothreitol (DTT), and then subjected to sonication, boiling, and centrifugal isolation. The precipitation is suspended in 1 mL of PBS to measure the absorbance at 340 nm. Apart from this process, a part of the solution after sonication is collected and measured in regards to the protein content, which is determined as a reference in evaluating the degree of differentiation.

[7] = 2.5 ppm after 2.5 mM tolbutamide
[8] = 10 ppm after 2.5 mM tolbutamide

SMILES | Melanogenesis inhibition rate (%) [1] [%] | Cell proliferation ability (%) ([2]; 5 ppm) | Cell proliferation ability (%) ([2]; 10 ppm) | Cell proliferation ability (%) ([2]; 20 ppm) | MITF (Western Blot, in comparison with 100 of the negative control group) ([3]; 24 hrs) | MITF (Western Blot, in comparison with 100 of the negative control group) ([3]; 48 hrs) | MITF (Western Blot, in comparison with 100 of the negative control group) ([3]; 72 hrs) | Cell proliferation ability (%) [4, 7] [%] | Cell proliferation ability (%) ([4]; 5 ppm after 2.5 mM tolbutamide) | Cell proliferation ability (%) [4, 8] [%] | Collagen synthesis ability (%) [5] [%] | Differentiation in keratinocytes (%) [6] [%]
CC(C)=CCC[C@](C)(O[C@@H]1O[C@H](CO)[C@@H](O)[C@H](O)[C@H]1O)[C@H]1CC[C@]2(C)[C@@H]1[C@H](O)C[C@@H]1[C@@]3(C)CC[C@H](O[C@@H]4O[C@H](CO)[C@@H](O)[C@H](O)[C@H]4O)C(C)(C)[C@@H]3CC[C@]12C [Ginsenoside F2, ginsenoside F2] | 72 | 116 | 122 | 138 | 92 | 120 | 162 | 115 | 120 | 131 | 191.6 | 309
CC(C)=CCC[C@](C)(O[C@@H]1O[C@H](CO[C@@H]2O[C@H](CO)[C@@H](O)[C@H](O)[C@H]2O)[C@@H](O)[C@H](O)[C@H]1O)[C@H]1CC[C@]2(C)[C@@H]1[C@H](O)C[C@@H]1[C@@]3(C)CC[C@H](O[C@@H]4O[C@H](CO)[C@@H](O)[C@H](O)[C@H]4O[C@@H]4O[C@H](CO)[C@@H](O)[C@H](O)[C@H]4O)C(C)(C)[C@@H]3CC[C@]12C [Ginsenoside Rb1] | 61 | 114 | 118 | 127 | 93 | 116 | 144 | 113 | 117 | 124 | 188.3 | 265
